Here are results for ten molecules from patent US12594277B2, “Macrocyclic ULK1/2 inhibitors” (SALK INSTITUTE FOR BIOLOGICAL STUDIES, priority 2020, dated 2026).

Test [1] addresses T1, NanoLuc-ULK1 fusion in HEK293T cells (Homo sapiens, UniProt O75385).
T1 construct: host or cells: HEK293T
T1 sequence (O75385 1-1050): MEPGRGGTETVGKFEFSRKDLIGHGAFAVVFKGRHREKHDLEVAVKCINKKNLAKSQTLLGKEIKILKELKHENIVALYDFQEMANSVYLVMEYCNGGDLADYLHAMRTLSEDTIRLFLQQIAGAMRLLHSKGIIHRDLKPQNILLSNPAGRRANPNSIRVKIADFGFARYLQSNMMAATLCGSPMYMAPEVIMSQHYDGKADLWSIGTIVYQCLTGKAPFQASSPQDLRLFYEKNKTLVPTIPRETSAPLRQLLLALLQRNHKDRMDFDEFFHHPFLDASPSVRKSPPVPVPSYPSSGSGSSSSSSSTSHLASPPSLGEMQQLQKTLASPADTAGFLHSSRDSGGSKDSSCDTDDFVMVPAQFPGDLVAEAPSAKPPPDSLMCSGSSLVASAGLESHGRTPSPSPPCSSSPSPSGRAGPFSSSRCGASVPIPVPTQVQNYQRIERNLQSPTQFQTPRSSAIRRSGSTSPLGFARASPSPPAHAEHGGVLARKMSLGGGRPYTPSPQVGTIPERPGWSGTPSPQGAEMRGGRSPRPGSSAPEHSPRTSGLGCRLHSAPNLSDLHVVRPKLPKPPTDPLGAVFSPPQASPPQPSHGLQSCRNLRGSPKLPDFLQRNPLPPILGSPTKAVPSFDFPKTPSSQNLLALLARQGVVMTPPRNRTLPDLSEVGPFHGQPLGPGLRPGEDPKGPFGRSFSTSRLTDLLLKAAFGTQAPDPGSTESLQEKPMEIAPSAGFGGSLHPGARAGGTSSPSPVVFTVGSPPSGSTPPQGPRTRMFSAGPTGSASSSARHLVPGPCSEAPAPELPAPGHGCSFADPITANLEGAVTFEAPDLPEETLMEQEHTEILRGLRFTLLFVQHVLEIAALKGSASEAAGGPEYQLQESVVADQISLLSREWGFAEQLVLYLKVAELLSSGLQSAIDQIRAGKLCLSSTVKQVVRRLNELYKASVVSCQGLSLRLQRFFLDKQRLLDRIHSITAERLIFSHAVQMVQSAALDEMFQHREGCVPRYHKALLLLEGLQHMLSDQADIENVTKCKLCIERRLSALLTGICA
Description: ULK1 NanoBRET assay. The test is classed as cell-based. The conditions noted are these: HEK293T transfected with NanoLuc-ULK1 Fusion Vector, Tracer K-5, 2 h incubation. How it is done: IC50s were also measured by ULK1 NanoBRET assay according to the following protocol: Human embryonic kidney cells (HEK293T) were transfected with NanoLuc®-ULK1 Fusion Vector (Promega #NV2211) using jetPRIME transfection reagent (Polyplus Transfection #114-15). Following 24 h, cells were trypsinized and resuspended in Opti-MEM® I (1×), Reduced Serum Medium (Gibco, #11058-021). Approximately, 7,000 cells per well (in 34 μL total volume) were replated into non-binding surface 384 well plates. Complete NanoBRET 20× Tracer K-5 reagent was prepared according to the manufacturer's directions and 2 μL were added to each well of the 384 plate (assay plate). The assay plate was mixed on an orbital shaker for 15 seconds at 700 rpm. Compounds were serially diluted at 200× final concentration in […], then diluted to 10× final concentration in assay media (Opti-MEM® I, Reduced Serum Medium). Next, 4 μL 10× test compounds were added to each well of the assay plate, followed by mixing at 700 rpm for 15 seconds. The assay plate was incubated for 2 h in a 37 C incubator with […] and then equilibrated to RT for 15 min. The 3× Complete Substrate plus Inhibitor Solution was prepared according to the manufacturer's directions with a concentration of Extracellular NanoLuc® Inhibitor of 60 μM to be used at a working concentration of 20 μM. The 3× Complete Substrate plus Inhibitor Solution was mixed and 20 μL per well was added to the assay plate and incubated at RT for 2-3 min. Donor emission wavelength (450 nm) and acceptor emission wavelength (610 nm) were measured using an assay compatible luminometer (see manufacturer's specifications).

In test [2] the target is T2, recombinant human ULK1 protein (1-649) (Homo sapiens, UniProt O75385).
T2 construct: recombinant human ULK1 protein (1-649, SignalChem #U01-11G); purchased SignalChem U01-11G
T2 sequence (O75385 1-649): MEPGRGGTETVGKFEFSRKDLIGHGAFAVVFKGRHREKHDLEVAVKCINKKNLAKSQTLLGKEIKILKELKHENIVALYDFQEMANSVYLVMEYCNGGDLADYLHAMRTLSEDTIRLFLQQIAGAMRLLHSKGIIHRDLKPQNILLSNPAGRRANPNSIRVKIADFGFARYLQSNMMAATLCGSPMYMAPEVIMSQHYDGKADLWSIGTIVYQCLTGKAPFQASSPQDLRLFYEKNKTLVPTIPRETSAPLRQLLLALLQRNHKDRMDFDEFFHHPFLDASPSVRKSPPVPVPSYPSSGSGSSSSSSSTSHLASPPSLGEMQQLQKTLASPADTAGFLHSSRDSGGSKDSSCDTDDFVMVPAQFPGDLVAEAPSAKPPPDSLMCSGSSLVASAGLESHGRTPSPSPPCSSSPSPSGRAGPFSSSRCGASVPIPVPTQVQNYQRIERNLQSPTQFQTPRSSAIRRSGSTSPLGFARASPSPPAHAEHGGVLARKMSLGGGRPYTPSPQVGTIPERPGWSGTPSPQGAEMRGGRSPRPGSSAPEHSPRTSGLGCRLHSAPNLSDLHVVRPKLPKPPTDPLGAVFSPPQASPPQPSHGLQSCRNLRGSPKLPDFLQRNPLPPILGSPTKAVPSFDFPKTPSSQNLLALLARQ
Description: ULK1 inhibition assay (ADP-Glo). The conditions noted are these: 2 ug/mL ULK1, 80 ug/mL myelin basic protein, 25 uM ATP, assessed after one hour. It counts as biochemical. The protocol:
IC50s measured by ADP-Glo assay are represented nM, with A representing IC50<20 nM, B representing IC50>20 nM. NT indicates the compound was not tested. ULK1 inhibition assays were performed in a 5 uL reaction volume containing 2 ug/mL recombinant human ULK1 protein (1-649, SignalChem #U01-11G) and 80 ug/mL myelin basic protein (MBP, Sigma-Aldrich #M1891) in the presence of 25 uM ATP (Sigma-Aldrich A7699). ULK 1 inhibition was assessed after one hour. Compounds were tested in triplicate in a 16-dose IC50 mode with 3-fold serial dilution and a starting dose of 30 uM. Staurosporine, a non-selective protein kinase inhibitor, was used in the assay as a positive control. Three separate experiments were carried out.

For the molecule `CNC(=O)c1ccc2cc1Nc1nc(ncc1C(F)(F)F)Nc1ccc(c(OC)c1)OC/C=C\CCCO2` [Compound 16, (Z)-5^3-methoxy-N-methyl-3^5-(trifluoromethyl)-6,13-dioxa-2,4-diaza-3(4,2)-pyrimidina-1(1,3),5(1,4)-dibenzenacyclotridecaphan-8-ene-1^6-carboxamide], the IC50 (usually the concentration needed to halve the response being measured) in test [1] was above 1000 nM; in test [2], above 20 nM.

Turning to `CNC(=O)c1ccc2cc1Nc1nc(ncc1C(F)(F)F)Nc1ccc(c(OC)c1)OCCCCCCO2` [Compound 17, 5^3-Methoxy-N-methyl-3^5-(trifluoromethyl)-6,13-dioxa-2,4-diaza-3(4,2)-pyrimidina-1(1,3),5 (1,4)-dibenzenacyclotridecaphane-16-carboxamide], the IC50 in test [1] was above 1000 nM; in test [2] it was above 20 nM.

As to `CNC(=O)c1cc2ccc1Nc1nc(ncc1C(F)(F)F)Nc1ccc(OC)c(c1)OC/C=C/CCCO2` [Compound 18, (E)-1^4-methoxy-N-methyl-3^5-(trifluoromethyl)-6,13-dioxa-2,4-diaza-3(2,4)-pyrimidina-1(1,3),5(1,4)-dibenzenacyclotridecaphan-10-ene-5^2-carboxamide], the IC50 in test [1] was above 1000 nM; in test [2], below 20 nM.

As for `CNC(=O)c1cc2ccc1Nc1nc(ncc1C(F)(F)F)Nc1ccc(OC)c(c1)OC/C=C\CCCO2` [Compound 19, (Z)-1^4-methoxy-N-methyl-3^5-(trifluoromethyl)-6,13-dioxa-2,4-diaza-3(2,4)-pyrimidina-1(1,3),5(1,4)-dibenzenacyclotridecaphan-10-ene-5^2-carboxamide], the IC50 in test [1] was below 1000 nM; in test [2], below 20 nM.

As to `CNC(=O)c1cc2ccc1Nc1nc(ncc1C(F)(F)F)Nc1ccc(OC)c(c1)OCCCCCCO2` [Compound 20, 1^4-Methoxy-N-methyl-3^5-(trifluoromethyl)-6,13-dioxa-2,4-diaza-3(2,4)-pyrimidina-1(1,3),5 (1,4)-dibenzenacyclotridecaphane-52-carboxamide], the IC50 is above 1000 nM in test [1] and below 20 nM in test [2].

On to `CNC(=O)c1ccc2cc1Nc1nc(ncc1C(F)(F)F)Nc1ccc(OC)c(c1)OC/C=C\CCO2` [Compound 21, (E)-1^4-methoxy-N-methyl-3^5-(trifluoromethyl)-6,12-dioxa-2,4-diaza-3(2,4)-pyrimidina-1,5(1,3)-dibenzenacyclododecaphan-9-ene-5^6-carboxamide], for which the IC50 is above 1000 nM in test [1] and above 20 nM in test [2].

`CNC(=O)c1ccc2cc1Nc1nc(ncc1C(F)(F)F)Nc1ccc(OC)c(c1)OC/C=C/CCO2` [Compound 22, (Z)-1^4-methoxy-N-methyl-3^5-(trifluoromethyl)-6,12-dioxa-2,4-diaza-3(2,4)-pyrimidina-1,5(1,3)-dibenzenacyclododecaphan-9-ene-5^6-carboxamide]: the IC50 was above 1000 nM in test [1] and above 20 nM in test [2].

Take `CNC(=O)c1ccc2cc1Nc1nc(ncc1C(F)(F)F)Nc1ccc(OC)c(c1)OCCCCCO2` [Compound 23, 1^4-methoxy-N-methyl-3^5-(trifluoromethyl)-6,12-dioxa-2,4-diaza-3(2,4)-pyrimidina-1,5(1,3)-dibenzenacyclododecaphane-5^6-carboxamide]: the IC50 was above 1000 nM in test [1] and above 20 nM in test [2].

As for `CNC(=O)c1ccc2cc1Nc1nc(ncc1C(F)(F)F)Nc1ccc(c(OC)c1)OC/C=C/CCO2` [Compound 24, (E/Z)-5^3-Methoxy-N-methyl-3^5-(trifluoromethyl)-6,12-dioxa-2,4-diaza-3(4,2)-pyrimidina-1(1,3),5(1,4)-dibenzenacyclododecaphan-8-ene-1^6-carboxamide], the IC50 is above 1000 nM in test [1] and above 20 nM in test [2].

Take `CNC(=O)c1ccc2cc1OCCCCCOc1ccc(cc1OC)Nc1ncc(C(F)(F)F)c(n1)N2` [Compound 25, 5^3-Methoxy-N-methyl-3^5-(trifluoromethyl)-6,12-dioxa-2,4-diaza-3(4,2)-pyrimidina-1(1,3), 5(1,4)-dibenzenacyclododecaphane-1^6-carboxamide]: the IC50 is above 1000 nM in test [1] and above 20 nM in test [2].
